Experimental findings from PubChem BioAssay AID330 (DTP/NCI, 2004) are described below.

“And” between values parts separate entries of the source, which are not always exact repeats. Equal values may be shown once. Toxic doses and inconclusive results are not listed. Peptide text beside a SMILES is read from it.

This assay relates to P388 leukemia ip, CD2F1 mice, survival T/C. The experiment in a line: NCI In Vivo Anticancer Drug Screen. Data for tumor model P388 Leukemia (intraperitoneal) in CD2F1 (CDF1) mice. The conditions noted are these: endpoint: median survival time, higher = longer survival. The method, boiled down: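 Mice carrying the transplanted tumor received test compound or vehicle. Survival was recorded in each group, and the value is the treated-group measurement divided by that of the vehicle-treated control group.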

Where [1] appears, read: dose: 50.0 mg/kg/injection, schedule: Q01DX005 (ip), vehicle: Klucel (hydroxypropylcellulose) (HPC).
The mark [2] stands for this setting: dose: 100.0 mg/kg/injection, schedule: Q01DX005 (ip), vehicle: Klucel (hydroxypropylcellulose) (HPC).
Where [3] appears, read: dose: 200.0 mg/kg/injection, schedule: Q01DX005 (ip), vehicle: Klucel (hydroxypropylcellulose) (HPC).
Where [4] appears, read: dose: 100.0 mg/kg/injection, schedule: Q01DX009 (ip), vehicle: Klucel (hydroxypropylcellulose) (HPC).
Where [5] appears, read: dose: 100.0 mg/kg/injection, schedule: Q01DX001 (ip), vehicle: Klucel (hydroxypropylcellulose) (HPC).
Where [6] appears, read: dose: 200.0 mg/kg/injection, schedule: Q01DX001 (ip), vehicle: Klucel (hydroxypropylcellulose) (HPC).
Where [7] appears, read: dose: 400.0 mg/kg/injection, schedule: Q01DX001 (ip), vehicle: Klucel (hydroxypropylcellulose) (HPC).
The mark [8] stands for this setting: dose: 60.0 mg/kg/injection, schedule: Q01DX005 (ip), vehicle: saline with Tween-80.
[9] abbreviates: dose: 120.0 mg/kg/injection, schedule: Q01DX005 (ip), vehicle: saline with Tween-80.
Where [10] appears, read: dose: 6.25 mg/kg/injection, schedule: Q01DX009 (ip), vehicle: saline.
Where [11] appears, read: dose: 12.5 mg/kg/injection, schedule: Q01DX009 (ip), vehicle: saline.
Where [12] appears, read: dose: 25.0 mg/kg/injection, schedule: Q01DX009 (ip), vehicle: saline.
Setting [13] is: dose: 240.0 mg/kg/injection, schedule: Q01DX005 (ip), vehicle: saline with Tween-80.

For the compound `CC(C)c1ccc(N2C=Nc3ccc(C(C)C)cc3C2)cc1`, the T/C is 92 % of control (dose: 50.0 mg/kg/injection, schedule: Q01DX009 (ip), vehicle: other); 99 % of control (dose: 100.0 mg/kg/injection, schedule: Q01DX009 (ip), vehicle: other); 99 % of control (dose: 200.0 mg/kg/injection, schedule: Q01DX009 (ip), vehicle: other).
As to `Nc1ncnc2c1C=C(B(O)O)B(O)N2`, the T/C runs as follows: (dose: 6.25 mg/kg/injection, schedule: Q01DX009 (ip), vehicle: Klucel (hydroxypropylcellulose) (HPC)) 97 % of control; (dose: 12.5 mg/kg/injection, schedule: Q01DX009 (ip), vehicle: Klucel (hydroxypropylcellulose) (HPC)) 99 % of control; (dose: 25.0 mg/kg/injection, schedule: Q01DX009 (ip), vehicle: Klucel (hydroxypropylcellulose) (HPC)) 104 % of control.
With `COC(=O)C1C[S][Sn]2([NH]1)[NH]C(C(=O)OC)C[S]2` (stereo unspecified), the T/C was 108 % of control under setting [1], 106 % of control under setting [2] and 101 % of control under setting [3].
For `CCC(C)C1=NCCCN1` (stereo unspecified), the T/C (dose: 100.0 mg/kg/injection, schedule: Q01DX001 (ip), vehicle: saline) was 100 % of control.
In the case of `CC1OC(OC2C(OC3C[C@@]4(C)C(C[C@H](O)[C@H]5[C@H](C6(C)CCC(C(C)(C)O)O6)CCC54C)[C@]4(C)CC[C@@H](O)C(C)(C)C34)OC(CO)C(O)C2O)C(O)C(O)C1O` (stereo partly specified) (tested in a mixture with another compound), the T/C (dose: 50.0 mg/kg/injection, schedule: Q01DX009 (ip), vehicle: Klucel (hydroxypropylcellulose) (HPC)) is 101 % of control; the T/C under setting [4] is 101 % of control; the T/C (dose: 200.0 mg/kg/injection, schedule: Q01DX009 (ip), vehicle: Klucel (hydroxypropylcellulose) (HPC)) is 94 % of control.
`CC(=O)OCc1c(COC(C)=O)c(-c2ccc(Cl)c(Cl)c2)n2c1CCC2`: the T/C under setting [4] was 122 % of control.
Consider `Cc1ccc(S(=O)(=O)N/N=C/c2c(C)nc3n2CCS3)cc1`, for which the T/C by setting is: under setting [5], 101 % of control; under setting [6], 102 % of control; under setting [7], 102 % of control.
Regarding `COC(=O)Nc1nc2ccc(C(=O)c3ccc(F)cc3)cc2[nH]1`, the T/C runs as follows: (dose: 12.5 mg/kg/injection, schedule: Q01DX009 (ip), vehicle: saline with Tween-80) 120 % of control; (dose: 50.0 mg/kg/injection, schedule: Q01DX009 (ip), vehicle: saline with Tween-80) 180 % of control; (dose: 100.0 mg/kg/injection, schedule: Q01DX009 (ip), vehicle: saline with Tween-80) 217 % of control and 236 % of control.
With `CN(C)C(CC(=O)O)C(=O)O` (stereo unspecified), the T/C was 108 % of control (dose: 50.0 mg/kg/injection, schedule: Q01DX009 (ip), vehicle: water); 98 % of control (dose: 100.0 mg/kg/injection, schedule: Q01DX009 (ip), vehicle: water); 99 % of control (dose: 200.0 mg/kg/injection, schedule: Q01DX009 (ip), vehicle: water).
For `Cc1ccc(/C=C/C(=N/Nc2ccccc2)C(C)CN(C)C)cc1` (stereo unspecified), the T/C is 100 % of control under setting [8] and 89 % of control under setting [9].
Take `CC(C)(C)C(=O)CC(=O)C(C)(C)C.[Cu]`: the T/C is, setting by setting: (dose: 100.0 mg/kg/injection, schedule: Q04DX003 (ip), vehicle: saline with Tween-80) 94 % of control; (dose: 200.0 mg/kg/injection, schedule: Q04DX003 (ip), vehicle: saline with Tween-80) 101 % of control.
Take `O=C(Nc1ccccc1C(=O)Nc1ccccc1C(=O)O)c1cccnc1`: the T/C was 109 % of control (dose: 100.0 mg/kg/injection, schedule: Q04DX002 (ip), vehicle: saline with Tween-80) and 100 % of control (dose: 200.0 mg/kg/injection, schedule: Q04DX002 (ip), vehicle: saline with Tween-80).
`Nc1[nH]c(=S)[nH]c(=O)c1N=O`: the T/C runs as follows: under setting [10], 100 % of control and 113 % of control; under setting [11], 98 % of control; under setting [12], 100 % of control and 117 % of control.
On to `CC(N)C(=O)NCC(=O)NC(CO)C(=O)NC(CCC(=O)O)C(=O)O` (stereo unspecified) (H-AGSE-OH; configuration not given here), for which the T/C is, setting by setting: (dose: 9.0 mg/kg/injection, schedule: Q01DX005 (ip), vehicle: water) 96 % of control; (dose: 18.0 mg/kg/injection, schedule: Q01DX005 (ip), vehicle: water) 102 % of control; (dose: 36.0 mg/kg/injection, schedule: Q01DX005 (ip), vehicle: water) 100 % of control; (dose: 72.0 mg/kg/injection, schedule: Q01DX005 (ip), vehicle: water) 110 % of control; (dose: 144.0 mg/kg/injection, schedule: Q01DX005 (ip), vehicle: water) 103 % of control.
With `CC1(c2ccccc2)COC(=O)O/C1=N/OCc1ccccc1` (stereo unspecified), the T/C runs as follows: (dose: 50.0 mg/kg/injection, schedule: Q01DX005 (ip), vehicle: saline with Tween-80) 100 % of control; (dose: 100.0 mg/kg/injection, schedule: Q01DX005 (ip), vehicle: saline with Tween-80) 107 % of control; (dose: 200.0 mg/kg/injection, schedule: Q01DX005 (ip), vehicle: saline with Tween-80) 99 % of control.
As to `Cc1cc([N+](=O)[O-])cc(Br)c1N`, the T/C was 100 % of control (dose: 100.0 mg/kg/injection, schedule: Q01DX001 (ip), vehicle: saline with Tween-80); 95 % of control (dose: 200.0 mg/kg/injection, schedule: Q01DX001 (ip), vehicle: saline with Tween-80); 95 % of control (dose: 400.0 mg/kg/injection, schedule: Q01DX001 (ip), vehicle: saline with Tween-80).
Turning to `O=C(/C=N/O)Nc1ccccc1I`, the T/C under setting [1] is 100 % of control, the T/C under setting [2] is 98 % of control and the T/C under setting [3] was 115 % of control.
As for `CCOc1c(N=Nc2ccc(C)cc2)c(C)nn1C(=S)SC`, the T/C by setting is: (dose: 60.0 mg/kg/injection, schedule: Q01DX005 (ip), vehicle: Klucel + Tween-80) 100 % of control; (dose: 120.0 mg/kg/injection, schedule: Q01DX005 (ip), vehicle: Klucel + Tween-80) 94 % of control; (dose: 240.0 mg/kg/injection, schedule: Q01DX005 (ip), vehicle: Klucel + Tween-80) 100 % of control.
With `Cn1c(=O)c2nc(-c3cccnc3)cnc2n(C)c1=O`, the T/C under setting [5] is 105 % of control, the T/C under setting [6] is 105 % of control and the T/C under setting [7] is 105 % of control.
Consider `C=C1C(=O)OC2CC(C)C3(O)CCC(=O)C3(C)CC12` (stereo unspecified), for which the T/C was 98 % of control (dose: 25.0 mg/kg/injection, schedule: Q01DX005 (ip), vehicle: Klucel (hydroxypropylcellulose) (HPC)); 90 % of control under setting [1]; 100 % of control under setting [2]; 102 % of control under setting [3].
Regarding `CN(C)NC=O`, the T/C (dose: 60.0 mg/kg/injection, schedule: Q01DX005 (ip), vehicle: saline) was 102 % of control; the T/C (dose: 120.0 mg/kg/injection, schedule: Q01DX005 (ip), vehicle: saline) was 102 % of control; the T/C (dose: 240.0 mg/kg/injection, schedule: Q01DX005 (ip), vehicle: saline) was 114 % of control.
With `C=C[Se](=C(C(=O)c1ccccc1)C(=O)c1ccccc1)c1ccccc1` (stereo unspecified), the T/C under setting [10] was 96 % of control; the T/C under setting [11] is 103 % of control; the T/C under setting [12] was 99 % of control; the T/C (dose: 50.0 mg/kg/injection, schedule: Q01DX009 (ip), vehicle: saline) is 107 % of control; the T/C (dose: 100.0 mg/kg/injection, schedule: Q01DX009 (ip), vehicle: saline) was 113 % of control; the T/C (dose: 200.0 mg/kg/injection, schedule: Q01DX009 (ip), vehicle: saline) is 113 % of control.
For the compound `O=[N+]([O-])c1ccc(C(Cl)Cc2ccc(Cl)cc2)cc1` (stereo unspecified), the T/C by setting is: under setting [8], 102 % of control; under setting [9], 90 % of control; under setting [13], 94 % of control.
Taken in the same sequence, the figures for `O=C(c1ccccc1)C1COc2ccccc2C1O` (stereo unspecified) were 109 % of control, 94 % of control and 94 % of control.
As for `Cc1ccc2nc3ccccc3c(SCCCCCCSc3c4ccccc4nc4ccc(C)cc34)c2c1`, the T/C (dose: 60.0 mg/kg/injection, schedule: Q01DX005 (ip), vehicle: Klucel (hydroxypropylcellulose) (HPC)) was 89 % of control; the T/C under setting [8] was 107 % of control; the T/C (dose: 120.0 mg/kg/injection, schedule: Q01DX005 (ip), vehicle: Klucel (hydroxypropylcellulose) (HPC)) is 87 % of control; the T/C under setting [9] was 90 % of control; the T/C (dose: 240.0 mg/kg/injection, schedule: Q01DX005 (ip), vehicle: Klucel (hydroxypropylcellulose) (HPC)) is 87 % of control.
